Target: human D2 receptor (Homo sapiens (Human), UniProt P14416)
Assay: Test 1: binding activity for human D2 receptor ([3H]Spiperone)
Conditions: ratio of D2 Ki to 5-HT1A Ki
Method: Test 1: Evaluation of Binding Activity for Human 5-HT1A Receptor, Human 5-HT2A Receptor, and Human D2 Receptor
Binding affinity of the present compound for human 5-HT1A receptor, human 5-HT2A receptor, and human D2 receptor was measured by the following procedures.
Each mixture was incubated at room temperature for 60 minutes. Then, the mixture was added quickly on a glassfiber filter plate (Multiscreen FB, Millipore, Inc.) coated with 0.3% aqueous polyethylenimine, and vacuum-filtered. Radioactivity remaining on the filter was measured with a liquid scintillation counter (PerkinElmer, Inc.). Binding inhibition rate was calculated from the following formula.
Ki of each compound was calculated from the following formula. Binding inhibition constant (Ki)=IC50/(1+S/Kd) wherein S is concentration of ligand; Kd is a binding dissociation constant of ligand to membrane, which is calculated from a saturated binding experiment conducted with the same cell membrane. A small Ki value means strong binding ability to a receptor.

Chain of human D2 receptor (P14416 whole entry): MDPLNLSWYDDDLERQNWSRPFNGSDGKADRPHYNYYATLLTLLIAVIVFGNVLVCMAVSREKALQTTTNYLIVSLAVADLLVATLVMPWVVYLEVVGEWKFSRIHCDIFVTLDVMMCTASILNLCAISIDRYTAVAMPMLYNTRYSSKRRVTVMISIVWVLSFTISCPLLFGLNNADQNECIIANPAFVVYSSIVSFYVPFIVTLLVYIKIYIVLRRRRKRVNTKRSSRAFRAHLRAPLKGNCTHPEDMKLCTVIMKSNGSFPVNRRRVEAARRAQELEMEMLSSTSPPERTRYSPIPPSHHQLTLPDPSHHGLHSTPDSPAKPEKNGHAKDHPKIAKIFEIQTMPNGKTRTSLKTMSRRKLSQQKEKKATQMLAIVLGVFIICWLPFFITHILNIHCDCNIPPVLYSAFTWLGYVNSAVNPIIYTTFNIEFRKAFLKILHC

| D2 Ki/5-HT1A Ki | Structure (SMILES) |
| --- | --- |
| 9 | Cn1ncc2c1C(=O)N(CCN1CCC(c3noc4ccccc34)CC1)CC2 [Example 96, 6-{2-[4-(1,2-Benzoisoxazol-3-yl)piperidin-1-yl]ethyl}-1-methyl-1,4,5,6-tetrahydro-7H-pyrazolo[3,4-c]pyridin-7-one] |
| 5.8 | Cc1cncc2c1CCN(CCN1CCN(c3noc4ccccc34)CC1)C2=O [Example 137] |
| 17 | Cn1cnc2c1CCCN(CCN1CCC(c3noc4ccccc34)CC1)C2=O [Example 101, 5-{2-[4-(1,2-Benzoisoxazol-3-yl)piperidin-1-yl]ethyl}-1-methyl-5,6,7,8-tetrahydroimidazo[4,5-c]azepin-4(1H)-one] |

Same assay, conditions: ratio of D2 Ki to 5-HT2A Ki

| Structure (SMILES) | D2 Ki/5-HT2A Ki |
| --- | --- |
| O=C1c2cnc(OC3COC3)cc2CCN1CCN1CCN(c2nsc3ccccc23)CC1 [Example 111, 2-{2-[4-(1,2-Benzoisothiazol-3-yl)piperazin-1-yl]ethyl}-6-[(oxetan-3-yl)oxy]-3,4-dihydro-2,7-naphthyridin-1(2H)-one] | 530 |
| Cn1ncc2c1C(=O)N(CCN1CCC(c3noc4ccccc34)CC1)CC2 [Example 96, 6-{2-[4-(1,2-Benzoisoxazol-3-yl)piperidin-1-yl]ethyl}-1-methyl-1,4,5,6-tetrahydro-7H-pyrazolo[3,4-c]pyridin-7-one] | 14 |
| COc1ccc2onc(C3CCN(CCN4CCc5cccnc5C4=O)CC3)c2c1 [Example 142] | >61.0 |

Test system: not listed separately
Assay: Test 4: metabolic stability test in human hepatic microsome
Format: in vitro ADME
Conditions: 0.1 mg/mL microsome, 0.1 μmol/L compound, NADPH, 37° C., 30 minutes
Method: Test 4: Metabolic Stability Test in Human Hepatic Microsome
The stability of the present compound in human hepatic microsome metabolism was evaluated as mentioned below. Human hepatic microsome was obtained from Xenontech. Human hepatic microsome, NADPH, and each test compound were mixed in 25 mmol/L phosphate buffer solution (pH 7.4) to reach the following concentrations as shown below, and the mixture was incubated at 37° C. for 30 minutes. • Human hepatic microsome: 0.1 mg/mL • NAPDH: 3.2 mmol/L • Test compound: 0.1 μmol/L
The residual ratio of the test compound in each sample after 30 minutes was measured by LC-MS, and the metabolic stability in human hepatic microsome was calculated from the following formula. Metabolic stability in human hepatic microsome (mL/min/mg protein)=−LN(residual ratio)/30/0.1

| Metabolic stability in human hepatic microsome [mL/min/mg protein] | Structure (SMILES) |
| --- | --- |
| <0.05 | Cn1cc2c(n1)C(=O)N(CCN1CCC(c3noc4ccccc34)CC1)CC2 [Example 156] |
| 0.064 | CCn1ncc2c1CCN(CCN1CCN(c3nsc4ccccc34)CC1)C2=O [Example 64] |
| 0.22 | COc1cc2c(cn1)C(=O)N(CCN1CCN(c3nsc4ccccc34)CC1)CC2 [Example 2, 2-{2-[4-(1,2-Benzoisothiazol-3-yl)piperazin-1-yl]ethyl}-6-methoxy-3,4-dihydro-2,7-naphthyridin-1(2H)-one] |
| <0.05 | Cn1cnc2c1C(=O)N(CCN1CCC(c3noc4ccccc34)CC1)CC2 [Example 133] |
| <0.01 | Cc1noc2c1C(=O)N(CCN1CCN(c3noc4ccccc34)CC1)CC2 [Example 32, 5-{2-[4-(1,2-Benzoisoxazol-3-yl)piperazin-1-yl]ethyl}-3-methyl-6,7-dihydro[1,2]oxazolo[4,5-c]pyridin-4(5H)-one] |
| 0.061 | Cc1cc2c(C3CCN(CCN4CCc5cccnc5C4=O)CC3)noc2cc1F [Example 6] |
| 0.019 | Cn1ncc2c1C(=O)N(CCN1CCC(c3noc4ccccc34)CC1)CC2 [Example 96, 6-{2-[4-(1,2-Benzoisoxazol-3-yl)piperidin-1-yl]ethyl}-1-methyl-1,4,5,6-tetrahydro-7H-pyrazolo[3,4-c]pyridin-7-one] |
| <0.01 | Cn1cc2c(n1)CCN(CCN1CCN(c3noc4ccccc34)CC1)C2=O [Example 81] |
| <0.05 | Cc1nc2c(o1)CCCN(CCN1CCC(c3noc4ccccc34)CC1)C2=O [Example 157] |
| 0.011 | O=C1c2ncccc2CCN1CCN1CCC(c2noc3cc(F)ccc23)CC1 [Example 4] |
| 0.095 | COc1ncc2c(n1)CCN(CCN1CCN(c3nsc4ccccc34)CC1)C2=O [Example 177] |
| <0.05 | O=C1c2ncoc2CCN1CCN1CCC(c2noc3ccccc23)CC1 [Example 190, 5-{2-[4-(1,2-Benzoisoxazol-3-yl)piperidin-1-yl]ethyl}-6,7-dihydro[1,3]oxazolo[4,5-c]pyridin-4(5H)-one] |
| <0.05 | Cc1cncc2c1CCN(CCN1CCN(c3noc4ccccc34)CC1)C2=O [Example 137] |
| 0.048 | O=C1c2ncccc2CCN1CCN1CCN(c2nsc3cc(F)ccc23)CC1 [Example 27] |
| <0.01 | O=C1c2cn[nH]c2CCCN1CCN1CCC(c2noc3ccccc23)CC1 [Example 97, 5-{2-[4-(1,2-Benzoisoxazol-3-yl)piperidin-1-yl]ethyl}-5,6,7,8-tetrahydropyrazolo[4,3-c]azepin-4(1H)-one] |
| 0.017 | Cn1ncc2c1CCC(CCN1CCC(c3noc4ccccc34)CC1)C2=O (centres unmarked) [Example 28] |

| Metabolic stability in human hepatic microsome [mL/min/mg protein] | Structure (SMILES) |
| --- | --- |
| <0.05 | Cn1ccc2c1CCN(CCN1CCN(c3noc4ccccc34)CC1)C2=O [Example 170] |
| <0.01 | Cn1cc2c(n1)C(=O)N(CCN1CCC(c3noc4ccccc34)CC1)CCC2 [Example 48] |
| 0.092 | O=C1c2cncnc2CCN1CCN1CCN(c2nsc3ccccc23)CC1 [Example 58] |
| <0.01 | Cc1n[nH]c2c1C(=O)N(CCN1CCC(c3noc4ccccc34)CC1)CC2 [Example 99, 5-{2-[4-(1,2-Benzoisoxazol-3-yl)piperidin-1-yl]ethyl}-3-methyl-1,5,6,7-tetrahydro-4H-pyrazolo[4,3-c]pyridin-4-one] |
| 0.072 | CC1CN(CCN2CCC(c3noc4ccccc34)CC2)C(=O)c2ccn(C)c21 (centres unmarked) [Example 82] |
| <0.05 | Cc1ccc2c(n1)C(=O)N(CCN1CCC(c3noc4ccccc34)CC1)CC2 [Example 184] |
| 0.097 | CC(C)c1nc2c(o1)C(=O)N(CCN1CCC(c3noc4ccccc34)CC1)CC2 [Example 164] |
| 0.012 | Cn1ncc2c1CCCN(CCN1CCN(c3noc4ccccc34)CC1)C2=O [Example 80] |
| 0.079 | Cc1cc2ccn(CCN3CCN(c4noc5ccccc45)CC3)c(=O)c2cn1 [Example 113, 2-{2-[4-(1,2-Benzoisoxazol-3-yl)piperazin-1-yl]ethyl}-6-methyl-2,7-naphthyridin-1(2H)-one] |
| <0.05 | O=C1c2cccnc2CCN1CCN1CCC(c2noc3ccccc23)CC1 [Example 128] |
| <0.05 | O=C1c2c(Br)n[nH]c2CCN1CCN1CCC(c2noc3ccccc23)CC1 [Example 192, 5-{2-[4-(1,2-Benzoisoxazol-3-yl)piperidin-1-yl]ethyl}-3-bromo-1,5,6,7-tetrahydro-4H-pyrazolo[4,3-c]pyridin-4-one] |
| 0.043 | Cc1nc2c(o1)CCCN(CCN1CCN(c3nsc4ccccc34)CC1)C2=O [Example 52] |
| <0.01 | Cc1ncc2c(n1)CCN(CCN1CCC(c3noc4ccccc34)CC1)C2=O [Example 88, 6-{2-[4-(1,2-Benzoisoxazol-3-yl)piperidin-1-yl]ethyl}-2-methyl-7,8-dihydropyrido[4,3-d]pyrimidin-5(6H)-one] |
| 0.018 | O=C1c2ncccc2CCC1CCN1CCC(c2noc3ccccc23)CC1 (centres unmarked) [Example 24] |
| <0.05 | O=C1c2cccnc2CCN1CCN1CCC(c2noc3cc(F)ccc23)CC1 [Example 121] |
| 0.056 | Cn1ccc2c1CCN(CCN1CCN(c3nsc4ccccc34)CC1)C2=O [Example 61] |

Source: patent publication US11466007B2, “Substituted lactams showing serotonin 5-HT receptor activity” (Sumitomo Pharma Co., Ltd., priority 2018, dated 2022)
